Measured values reported in the supplement of paper PMC10307832.

Experiments:
Experiment in all cases: relative viability (nuclei count vs DMSO), 5 days (fraction); higher = more cells survive
Entinostat + Phenformin = compound: Nc1ccccc1NC(=O)c1ccc(CNC(=O)OCc2cccnc2)cc1 [Entinostat] + N=C(N)NC(=N)NCCc1ccccc1 [Phenformin] (partner 250 µM)
Method in brief: (§1)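 For relative viability, nuclei counts in treated wells were divided by those in vehicle wells. Lung cancer cell lines had been pin-tool dosed in 1536-well plates the day after seeding and cultured for 5 days, then fixed and stained in one step (final 0.05% Triton X-100, 1% formaldehyde, 1 ug/ml Hoechst) and imaged at 4×. Doses were one drug alone or a fixed anchor-drug dose plus five library-drug doses (not always all listed) in √10 steps, and values are duplicate-plate medians.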

SGI-1776 + Luminespib = compound: CN1CCC(CNc2ccc3ncc(-c4cccc(OC(F)(F)F)c4)n3n2)CC1 [SGI-1776] + CCNC(=O)c1noc(-c2cc(C(C)C)c(O)cc2O)c1-c1ccc(CN2CCOCC2)cc1 [Luminespib] (partner 0.01 µM)
Method in brief: as §1

Entinostat + Luminespib = compound: Nc1ccccc1NC(=O)c1ccc(CNC(=O)OCc2cccnc2)cc1 [Entinostat] + CCNC(=O)c1noc(-c2cc(C(C)C)c(O)cc2O)c1-c1ccc(CN2CCOCC2)cc1 [Luminespib] (partner 0.01 µM)
Method in brief: as §1

Entinostat + Crizotinib = compound: Nc1ccccc1NC(=O)c1ccc(CNC(=O)OCc2cccnc2)cc1 [Entinostat] + C[C@@H](Oc1cc(-c2cnn(C3CCNCC3)c2)cnc1N)c1c(Cl)ccc(F)c1Cl [Crizotinib] (partner 1 µM)
Method in brief: as §1

| Cell Line | relative viability (Entinostat + Phenformin; first compound 0.02 µM) | relative viability (Entinostat + Phenformin; first compound 0.06325 µM) | relative viability (Entinostat + Phenformin; first compound 0.2 µM) | relative viability (Entinostat + Phenformin; first compound 0.6325 µM) | relative viability (Entinostat + Phenformin; first compound 2 µM) | relative viability (SGI-1776 + Luminespib; first compound 0.08 µM) | relative viability (SGI-1776 + Luminespib; first compound 0.8 µM) | relative viability (SGI-1776 + Luminespib; first compound 2.53 µM) | relative viability (SGI-1776 + Luminespib; first compound 8 µM) | relative viability (Entinostat + Luminespib; first compound 0.02 µM) | relative viability (Entinostat + Luminespib; first compound 0.06325 µM) | relative viability (Entinostat + Luminespib; first compound 0.2 µM) | relative viability (Entinostat + Luminespib; first compound 0.6325 µM) | relative viability (Entinostat + Luminespib; first compound 2 µM) | relative viability (Entinostat + Crizotinib; first compound 0.02 µM) | relative viability (Entinostat + Crizotinib; first compound 0.06325 µM) | relative viability (Entinostat + Crizotinib; first compound 0.2 µM) | relative viability (Entinostat + Crizotinib; first compound 0.6325 µM) | relative viability (Entinostat + Crizotinib; first compound 2 µM) |
| --- | --- | --- | --- | --- | --- | --- | --- | --- | --- | --- | --- | --- | --- | --- | --- | --- | --- | --- | --- |
| NCI-H838 | 0.706 | 0.852 | 0.677 | 0.426 | 0.198 | 0.231 | 0.331 | 0.349 | 0.254 | 0.291 | 0.257 | 0.291 | 0.196 | 0.201 | 0.995 | 0.818 | 0.949 | 0.536 | 0.229 |
| HARA | 0.459 | 0.441 | 0.494 | 0.364 | 0.277 | 0.862 | 0.67 | 0.67 | 0.0476 | 0.534 | 0.732 | 0.752 | 0.584 | 0.201 | 1.02 | 1.02 | 1.05 | 0.974 | 0.565 |
| NCI-H23 | 0.71 | 0.667 | 0.796 | 0.762 | 0.501 | 0.217 | 0.221 | 0.238 | 0.192 | 0.187 | 0.21 | 0.229 | 0.199 | 0.18 | 0.5 | 0.545 | 0.407 | 0.39 | 0.166 |
| LOU-NH91 | 0.746 | 0.773 | 0.75 | 0.706 | 0.55 | 0.366 | 0.345 | 0.367 | 0.305 | 0.341 | 0.333 | 0.371 | 0.394 | 0.337 | 0.705 | 0.754 | 0.757 | 0.742 | 0.678 |
| LCLC-103H | 0.36 | 0.379 | 0.331 | 0.265 | 0.229 | 0.965 | 0.88 | 0.948 | 0.729 | 0.979 | 0.967 | 0.909 | 0.715 | 0.288 | 0.968 | 1.03 | 0.992 | 0.801 | 0.631 |
| SW 1573 | 0.38 | 0.483 | 0.41 | 0.45 | 0.382 | 0.281 | 0.653 | 0.314 | 0.185 | 0.531 | 0.35 | 0.162 | 0.262 | 0.217 | 0.848 | 0.865 | 0.937 | 0.761 | 0.592 |
| EKVX | 0.225 | 0.243 | 0.227 | 0.222 | 0.205 | 0.868 | 0.937 | 0.875 | 0.863 | 0.986 | 0.913 | 0.794 | 0.801 | 0.427 | 0.81 | 0.977 | 1.03 | 0.819 | 0.432 |
| IA-LM |  |  |  |  |  |  |  |  |  |  |  |  |  |  | 0.731 | 0.855 | 0.928 | 0.728 | 0.651 |
| HCC-827 | 0.397 | 0.381 | 0.395 | 0.357 | 0.275 | 0.551 | 0.622 | 0.782 | 0.348 | 0.505 | 0.309 | 0.401 | 0.202 | 0.197 | 0.868 | 0.889 | 0.699 | 0.559 | 0.384 |
| NCI-H661 | 0.281 | 0.266 | 0.303 | 0.269 | 0.192 | 0.996 | 0.977 | 1 | 0.913 | 0.838 | 0.868 | 0.834 | 0.642 | 0.493 | 0.907 | 0.909 | 1.01 | 0.834 | 0.633 |
| CAL-12T | 0.649 | 0.581 | 0.593 | 0.523 | 0.325 | 0.331 | 0.394 | 0.452 | 0.519 | 0.502 | 0.402 | 0.459 | 0.461 | 0.364 | 0.7 | 0.732 | 0.864 | 0.594 | 0.251 |
| NCI-H2342 | 0.6 | 0.639 | 0.518 | 0.584 | 0.468 | 0.695 | 0.767 | 0.721 | 0.64 | 0.69 | 0.729 | 0.744 | 0.589 | 0.553 |  |  |  |  |  |
| SW 900 | 0.653 | 0.759 | 0.686 | 0.369 | 0.306 | 0.178 | 0.173 | 0.208 | 0.166 | 0.185 | 0.157 | 0.222 | 0.163 | 0.202 |  |  |  |  |  |
| LC-2-ad | 0.568 | 0.566 | 0.579 | 0.365 | 0.208 | 0.983 | 1.09 | 1.06 | 0.769 | 1.04 | 0.936 | 0.816 | 0.65 | 0.298 | 0.521 | 0.4 | 0.36 | 0.296 | 0.241 |
| EPLC-272H | 0.297 | 0.303 | 0.276 | 0.175 | 0.217 | 0.402 | 0.536 | 0.501 | 0.2 | 0.209 | 0.187 | 0.31 | 0.262 | 0.264 | 0.924 | 0.872 | 0.933 | 0.61 | 0.322 |
| A-427 | 0.365 | 0.327 | 0.368 | 0.318 | 0.266 | 0.915 | 0.856 | 0.755 | 0.869 | 1.01 | 1.03 | 0.83 | 0.651 | 0.582 | 0.808 | 1.06 | 0.864 | 0.665 | 0.545 |
| NCI-H650 | 0.491 | 0.466 | 0.431 | 0.455 | 0.318 | 0.863 | 0.734 | 0.9 | 0.858 | 0.824 | 0.76 | 0.829 | 0.672 | 0.427 | 0.673 | 0.564 | 0.586 | 0.473 | 0.222 |
| NCI-H1993 | 0.489 | 0.579 | 0.495 | 0.536 | 0.563 | 0.882 | 0.964 | 0.676 | 0.652 | 0.968 | 1.08 | 0.925 | 0.771 | 0.275 | 0.832 | 0.848 | 0.774 | 0.76 | 0.597 |
